According to ChEMBL document CHEMBL5518188, “Discovery of 4-amino-1,6-dihydro-7H-pyrrolo[2,3-d]pyridazin-7-one derivatives as potential receptor-interacting serine/threonine-protein kinase 1 (RIPK1) inhibitors” (Eur J Med Chem, 2024):

Tests used:
[1] = system: HT-29; assay: Anti-necroptosis activity against TSZ-induced human HT-29 cells; format: functional, cell-based
[2] = Cmax in BALB/c mouse at 10 mg/kg, po; format: ADME, organism-based; settings: in vivo
[3] = AUC (0 to t) in BALB/c mouse at 5 mg/kg, iv; format: ADME, organism-based; settings: in vivo
[4] = Half life in BALB/c mouse at 5 mg/kg, iv; format: ADME, organism-based; settings: in vivo
[5] = Apparent volume of distribution in BALB/c mouse at 10 mg/kg, po; format: ADME, organism-based; settings: in vivo
[6] = system: U-937; assay: Anti-necroptosis activity against TSZ-induced human U-937 cells; format: functional, cell-based
[7] = Half life in BALB/c mouse at 10 mg/kg, po; format: ADME, organism-based; settings: in vivo
[8] = system: L929; assay: Anti-necroptosis activity against TSZ-induced mouse L929 cells; format: functional, cell-based
[9] = Oral bioavailability in BALB/c mouse at 10 mg/kg; format: ADME, organism-based; settings: in vivo
[10] = Tmax in BALB/c mouse at 10 mg/kg, po; format: ADME, organism-based; settings: in vivo
[11] = molecular target: T1, Receptor-interacting serine/threonine-protein kinase 1 (Homo sapiens, UniProt Q13546); assay: Inhibition of RIPK1 (unknown origin) in presence of ATP by kinaseProfiler assay
T1 sequence (Q13546 whole entry): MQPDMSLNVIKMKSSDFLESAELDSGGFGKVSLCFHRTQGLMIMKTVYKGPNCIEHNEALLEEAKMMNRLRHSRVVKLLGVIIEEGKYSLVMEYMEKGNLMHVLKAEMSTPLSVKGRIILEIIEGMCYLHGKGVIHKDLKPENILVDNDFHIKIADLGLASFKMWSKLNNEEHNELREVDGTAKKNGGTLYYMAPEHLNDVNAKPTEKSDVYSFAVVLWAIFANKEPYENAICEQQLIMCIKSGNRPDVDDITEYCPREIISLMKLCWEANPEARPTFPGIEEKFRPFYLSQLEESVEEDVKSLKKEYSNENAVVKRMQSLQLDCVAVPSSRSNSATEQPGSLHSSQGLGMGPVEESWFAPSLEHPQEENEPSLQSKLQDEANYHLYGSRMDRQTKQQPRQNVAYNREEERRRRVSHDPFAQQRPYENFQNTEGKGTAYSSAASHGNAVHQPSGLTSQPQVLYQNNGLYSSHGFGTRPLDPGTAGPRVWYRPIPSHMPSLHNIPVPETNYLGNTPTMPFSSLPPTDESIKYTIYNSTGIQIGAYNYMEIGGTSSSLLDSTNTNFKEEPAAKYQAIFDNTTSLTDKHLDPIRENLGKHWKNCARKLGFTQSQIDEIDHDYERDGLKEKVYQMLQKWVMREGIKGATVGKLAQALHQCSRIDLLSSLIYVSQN

[12] = Tmax in BALB/c mouse at 5 mg/kg, iv; format: ADME, organism-based; settings: in vivo
[13] = Metabolic stability in cryopreserved human liver microsome assessed as half life; format: ADME; settings: cryopreserved liver microsomes
[14] = AUC (0 to t) in BALB/c mouse at 10 mg/kg, po; format: ADME, organism-based; settings: in vivo, po, 10 mg/kg
[15] = Cmax in BALB/c mouse at 5 mg/kg, iv; format: ADME, organism-based; settings: in vivo
[16] = Clearance in BALB/c mouse at 10 mg/kg, iv; format: ADME, organism-based; settings: in vivo
[17] = Tmax in BALB/c mouse at 10 mg/kg, iv; format: ADME, organism-based; settings: in vivo
[18] = Clearance in BALB/c mouse at 10 mg/kg, po; format: ADME, organism-based; settings: in vivo, po, 10 mg/kg
[19] = Apparent volume of distribution in BALB/c mouse at 10 mg/kg, iv; format: ADME, organism-based; settings: in vivo, read-out: Vz
[20] = Half life in BALB/c mouse at 10 mg/kg, iv; format: ADME, organism-based; settings: in vivo
[21] = Cmax in BALB/c mouse at 10 mg/kg, iv; format: ADME, organism-based; settings: in vivo
[22] = AUC (0 to t) in BALB/c mouse at 10 mg/kg, iv; format: ADME, organism-based; settings: in vivo, iv, 10 mg/kg

Structure (SMILES) | EC50 [1] [nM] | Cmax [2] [ng/mL] | Vz [5] [L/kg] | EC50 [6] [nM] | EC50 [8] [nM] | Tmax [10] [h] | IC50 [11] [nM] | half-life [13] [h] | AUCt [14] [ng·h/mL] | also measured
Nc1n[nH]c(=O)c2c1c(-c1ccc3c(c1)CCN3C(=O)Cc1cccc(OC(F)(F)F)c1)nn2CC1CC1 | 2.61 | 1090 | 6007.49 | 3.89 | 0.48 | 1 | 110 | 0.813 | 6121.97 | AUC(0-t) [3]: 6930 ng·h/mL; half-life [4]: 11.7 h; half-life ([7]; BALB/c): 2.58 h; bioavailability ([9]; BALB/c): 44.1%; Tmax [12]: 8.4 min; Cmax [15]: 3290 ng/mL
Nc1n[nH]c(=O)c2c1c(-c1ccc3c(c1)CCN3C(=O)Cc1cccc(C(F)(F)F)c1)cn2CC1CC1 | 6.01 | 45.5 | 2.8 | 1.88 | 1.17 | 0.14 | 125 | 1.99 | 2048.56 | clearance [16]: 48.7 mL/min/kg; Tmax [17]: 2 h; CL [18]: 48.7 mL/min/kg; Vd [19]: 91 L/kg; t1/2 ([7]; po, 10 mg/kg): 20.99 h; half-life [20]: 21 h; F ([9]; po, 10 mg/kg): 22.49%; Cmax [21]: 45.5 ng/mL; AUCt [22]: 2048.56 ng·h/mL
